Measured values reported in article PMC2832311 (Journal of medicinal chemistry, 2009).
“Also recorded” adds a separate entry of the source. Like-named read-outs stand apart in the source and are kept apart here.

Key:
[1] = target: T1, human 5-HT2C (INI) receptor (Homo sapiens, UniProt P28335); assay: Calcium flux assay, 5-HT2C; details: for 5-HT2C agonist efficacy (in words): calcium flux; for EC50: NA: Emax ≤ 12%; for Emax: read-out: 5-HT2C Emax, percent of maximal activation by 5-HT; for Selectivity 2A/2C / Selectivity 2B/2C: EC50 ratio
T1 sequence (P28335 33-458): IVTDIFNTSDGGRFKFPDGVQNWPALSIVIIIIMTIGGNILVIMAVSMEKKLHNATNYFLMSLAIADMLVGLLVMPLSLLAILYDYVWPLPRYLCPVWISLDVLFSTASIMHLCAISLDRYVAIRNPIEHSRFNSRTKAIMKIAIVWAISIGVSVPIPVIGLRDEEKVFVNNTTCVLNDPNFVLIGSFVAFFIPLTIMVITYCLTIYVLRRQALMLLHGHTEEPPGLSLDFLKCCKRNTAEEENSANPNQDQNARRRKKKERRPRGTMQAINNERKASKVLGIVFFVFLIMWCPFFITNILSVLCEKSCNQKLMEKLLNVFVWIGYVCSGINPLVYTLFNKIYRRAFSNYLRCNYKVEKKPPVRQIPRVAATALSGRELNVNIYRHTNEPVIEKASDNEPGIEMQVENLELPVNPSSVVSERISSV

[2] = tested on: MAO; details: tryptamine potentiation model; cited from earlier work
[3] = target: human 5-HT2A receptor (Homo sapiens, UniProt P28223); assay: Calcium flux assay, 5-HT2A; details: for EC50: 5-HT2A EC50, HEK-293, NA: Emax ≤ 12%; for Emax: read-out: 5-HT2A Emax, percent of maximal activation by 5-HT
Chain of human 5-HT2A receptor (P28223 whole entry): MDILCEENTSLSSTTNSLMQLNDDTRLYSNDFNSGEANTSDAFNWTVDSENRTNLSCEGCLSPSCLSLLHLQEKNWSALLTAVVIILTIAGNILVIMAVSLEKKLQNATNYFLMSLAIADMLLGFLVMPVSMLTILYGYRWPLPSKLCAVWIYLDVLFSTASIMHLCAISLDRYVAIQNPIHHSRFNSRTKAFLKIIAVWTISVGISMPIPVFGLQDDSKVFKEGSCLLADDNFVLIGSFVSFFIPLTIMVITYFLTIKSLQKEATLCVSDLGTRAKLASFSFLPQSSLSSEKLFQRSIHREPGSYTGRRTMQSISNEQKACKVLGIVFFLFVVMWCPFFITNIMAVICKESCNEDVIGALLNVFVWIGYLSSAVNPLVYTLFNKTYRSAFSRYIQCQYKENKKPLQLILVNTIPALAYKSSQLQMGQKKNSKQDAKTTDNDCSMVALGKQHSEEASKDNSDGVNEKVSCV

[4] = target: human 5-HT2B receptor (Homo sapiens, UniProt P41595); assay: Calcium flux assay, 5-HT2B; details: for EC50: 5-HT2B EC50, HEK-293, NA: Emax ≤ 12%; for Emax: read-out: 5-HT2B Emax, percent of maximal activation by 5-HT
Chain of human 5-HT2B receptor (P41595 whole entry): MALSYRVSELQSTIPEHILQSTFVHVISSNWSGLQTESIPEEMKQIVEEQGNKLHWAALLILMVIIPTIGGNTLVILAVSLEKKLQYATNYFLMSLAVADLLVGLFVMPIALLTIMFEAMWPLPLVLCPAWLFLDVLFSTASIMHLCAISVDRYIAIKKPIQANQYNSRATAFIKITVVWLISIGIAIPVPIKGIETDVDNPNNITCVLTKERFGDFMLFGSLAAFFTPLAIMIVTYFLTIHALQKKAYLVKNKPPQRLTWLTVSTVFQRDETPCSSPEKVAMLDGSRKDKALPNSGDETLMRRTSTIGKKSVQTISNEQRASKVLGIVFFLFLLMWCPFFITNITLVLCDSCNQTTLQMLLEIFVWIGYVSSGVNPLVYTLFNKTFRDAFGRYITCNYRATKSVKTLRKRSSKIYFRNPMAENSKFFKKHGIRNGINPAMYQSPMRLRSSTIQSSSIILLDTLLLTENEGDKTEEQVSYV

[5] = tested on: C57BL/6J male mice; assay: Mouse forced swim test; type: in vivo; details: 30 min prior to testing
[6] = Table 2 section 1 (independent campaign)
[7] = Table 2 section 2 (independent campaign)
[8] = 5-HT2C EC50, HEK-293, Table 2 section 1
[9] = 5-HT2C EC50, HEK-293, Table 2 section 4
[10] = 5-HT2C EC50, HEK-293, Table 2 section 2

In the case of `N[C@@H]1C[C@H]1c1ccccc1` (racemic) [compound 9, tranylcypromine, reference compound], the “5-HT2C agonist efficacy (in words)” value [1] is reported as “full agonists”.

In the case of `Cl.NC[C@@H]1C[C@H]1c1ccccc1` (relative stereo) [14a, trans-(2-Phenylcyclopropyl)methylamine Hydrochloride], the MAO inhibitory activity [2] is given as “devoid of MAO inhibitory activity” and the “5-HT2C agonist efficacy (in words)” value [1] is given as “full agonists”.

`CC(C)N[C@@H]1C[C@H]1c1ccccc1` (relative stereo) [compound 18, trans-N-Isopropyl-(2-phenylcyclopropyl)amine] gave an EC50 ([1]; 5-HT2C EC50, HEK-293 stably transfected, Table 1 section 2) of 3420 nM and an Emax ([1]; Table 1 section 2) of 18%.

In the case of `Cl.NC[C@H]1C[C@@H]1c1ccccc1F` (relative stereo) [compound 27, trans-[2-(2-Fluorophenyl)cyclopropyl]methylamine Hydrochloride], the EC50 [3, 6] is reported as > 1000 nM, the EC50 [3, 7] is reported as 942 nM and the EC50 ([3]; Table 2 section 4 (independent campaign)) is reported as 681 nM. It also gave an Emax ([3]; Table 2 section 2) of 79%, an Emax ([3]; Table 2 section 4) of 62% and an EC50 ([4]; Table 2 section 1) of 1550 nM. For the same compound, the EC50 ([4]; Table 2 section 2) was 199 nM, the Emax ([4]; Table 2 section 2) was 89% and the Emax ([4]; Table 2 section 4) was 84%. For the same compound, the EC50 [1, 8] was 37 nM, the EC50 [1, 9] was 33 nM and the “Selectivity 2A/2C” value ([1]; Table 2 section 1) was > 27. The “Selectivity 2B/2C” value ([1]; Table 2 section 1) was 42, the “Selectivity 2A/2C” value ([1]; Table 2 section 2) was 32 and the “Selectivity 2B/2C” value ([1]; Table 2 section 2) was 6.8. The Emax ([1]; Table 2 section 1) was 94%.

`Cl.NC[C@H]1C[C@@H]1c1ccccc1Cl` (relative stereo) [compound 28, trans-[2-(2-Chlorophenyl)cyclopropyl]methylamine Hydrochloride] showed an EC50 [3, 6] of 403 nM, an Emax ([3]; Table 2 section 2) of 87% and an EC50 ([4]; Table 2 section 1) of 84 nM. For the same compound, the EC50 [1, 10] was 5.5 nM, the “Selectivity 2A/2C” value ([1]; Table 2 section 1) was 79 and the “Selectivity 2B/2C” value ([1]; Table 2 section 1) was 16. For the same compound, the Emax ([1]; Table 2 section 1) was 98%.

For `Cl.NC[C@@H]1C[C@H]1c1ccccc1Br` (relative stereo) [compound 29, trans-[2-(2-Bromophenyl)cyclopropyl]methylamine Hydrochloride], the EC50 [3, 6] was 585 nM, the EC50 ([4]; Table 2 section 1) was 154 nM and the EC50 [1, 8] was 2.8 nM. The “Selectivity 2A/2C” value ([1]; Table 2 section 1) was 206, the “Selectivity 2B/2C” value ([1]; Table 2 section 1) was 54 and the Emax ([1]; Table 2 section 1) was 93%.

Work on `Cl.NC[C@H]1C[C@@H]1c1cccc(F)c1` (relative stereo) [compound 34, trans-[2-(3-Fluorophenyl)cyclopropyl]methylamine Hydrochloride] yielded an EC50 [3, 6] of 1770 nM, an EC50 [3, 7] of 733 nM and an Emax ([3]; Table 2 section 4) of 73%. The EC50 ([4]; Table 2 section 1) was 51 nM, the EC50 ([4]; Table 2 section 2) was 13 nM and the Emax ([4]; Table 2 section 1) was 106%. The Emax ([4]; Table 2 section 2) was 96%, the EC50 [1, 8] was 3.9 nM and the “Selectivity 2A/2C” value ([1]; Table 2 section 1) was 450. The “Selectivity 2B/2C” value ([1]; Table 2 section 1) was 13, the “Selectivity 2A/2C” value ([1]; Table 2 section 2) was 225 and the “Selectivity 2B/2C” value ([1]; Table 2 section 2) was 4.0. It also gave an Emax ([1]; Table 2 section 2) of 97% and an Emax ([1]; Table 2 section 4) of 96%.

With `Cc1cccc([C@H]2C[C@@H]2CN)c1.Cl` (relative stereo) [compound 37, trans-[2-(3-Methylphenyl)cyclopropyl]methylamine Hydrochloride] the “immobility time (in words)” value ([5]; 10–60 mg/kg i.p., vs vehicle) was “decreased immobility time; also recorded: significant decrease in immobility; also recorded: dose-dependent decrease in immobility time”.

For `Cl.NC[C@H]1C[C@@H]1c1ccc(F)cc1` (relative stereo) [compound 41, trans-[2-(4-Fluorophenyl)cyclopropyl]methylamine Hydrochloride], the EC50 [3, 6] was 1100 nM, the EC50 [3, 7] was 646 nM and the Emax ([3]; Table 2 section 2) was 80%. The Emax ([3]; Table 2 section 4) was 68%, the EC50 ([4]; Table 2 section 1) was 312 nM and the EC50 ([4]; Table 2 section 2) was 57 nM. The Emax ([4]; Table 2 section 1) was 95%, the EC50 [1, 10] was 8.4 nM and the EC50 [1, 9] was 11 nM. The “Selectivity 2A/2C” value ([1]; Table 2 section 1) was 202, the “Selectivity 2B/2C” value ([1]; Table 2 section 1) was 57 and the “Selectivity 2A/2C” value ([1]; Table 2 section 2) was 77. The “Selectivity 2B/2C” value ([1]; Table 2 section 2) was 6.8 and the Emax ([1]; Table 2 section 4) was 96%.

In the case of `Cl.NC[C@H]1C[C@@H]1c1ccc(C(F)(F)F)cc1` (relative stereo) [compound 45, trans-[2-(4-Trifluoromethylphenyl)cyclopropyl]methylamine Hydrochloride], the “Selectivity 2B/2C” value ([1]; Table 2 section 1) is reported as > 1.

With `Cl.NC[C@H]1C[C@@H]1c1ccccc1` [(+)-14a, (+)-trans-(S,S)-(2-Phenylcyclopropyl)methylamine Hydrochloride] the “5-HT2C agonist efficacy (in words)” value [1] was “full agonists”.

For `Cl.NC[C@@H]1C[C@H]1c1ccccc1` [(−)-14a, (−)-trans-(R,R)-(2-Phenylcyclopropyl)methylamine Hydrochloride], the “Selectivity 2A/2C” value ([1]; Table 1 section 2) was > 10.

`C[C@H]1CNCCc2ccc(Cl)cc21` [compound 7, (1R)-8-chloro-2,3,4,5-tetrahydro-1-methyl-1H-3-benzazepine, reference compound] gave an Emax ([3]; Table 2 section 4) of 33% and an Emax ([1]; Table 2 section 4) of 96%.

In the case of `CN[C@H]1CC[C@@H](c2ccc(Cl)c(Cl)c2)c2ccccc21` [compound 92, sertraline, reference compound], the “immobility time (in words)” value ([5]; 10 mg/kg i.p., positive control, p < 0.001) is reported as “significant decrease in immobility; also recorded: significantly reduced the immobility time”.
